Where a name gives a salt, the structure may show the parent alone.
Legend:
[1] = test system: human NEC14 xenograft tumors; assay: Advanced NEC14 subcutaneous xenograft tumor model, IMAB027 with cisplatin or carboplatin; assay type: in vivo, mice; settings: advanced s.c. NEC14 xenograft; cisplatin 1 mg/kg i.p. day 6-10; carboplatin 30 mg/kg i.p. day 6, 13, 20; IMAB027 35 mg/kg three times a week from day 6
Method: Subcutaneous human NEC14 xenograft tumors were grown to a median size of ˜100 mm^3 before the beginning of the treatment. Mice were treated with 1 mg/kg cisplatin by i.p. injections daily from day 6 to 10 post engraftment and with three 35 mg/kg IMAB027 injections per week (alternating i.v./i.p./i.p.) starting on day 6 as maintenance therapy. […] The arrow marks the time point of therapy start. (B) Individual tumor size in mice at day 24 post graft (mean with ±standard diviation). (C) Survival curves of treated mice. Group size: n=19. P-values: *, p<0.05; **, p<0.01 and ***, p<0.001.
Instead of cisplatin, mice were treated with 30 mg/kg carboplatin on days 6, 13 and 20 by bolus i.p. injections. […] The arrow marks the time point of therapy start. (B) Individual tumor size in mice at day 24 post graft (mean with ±standard diviation). (C) Survival curves of treated mice. Group size: n=19. P-values: *, p<0.05; **, p<0.01 and ***, p<0.001. […]
For treatment of advanced human NEC14 xenograft tumors the human testicular germ cell tumor cell line NEC14 was cultivated according to the instructions of the supplier in RPMI 1640 medium GlutaMAX™ (Life Technologies) containing 10% FCS (Life Technologies) at 3TC in a humidified incubator with 5% CO2. […] Tumor burden were monitored twice a week. […] Inhibition of tumor growth was analyzed using the Kruskal-Wallis test and the post-hoc Dunn's multiple comparison test.

[2] = test system: COV362(Luc) cells; assay: CLDN6 surface expression on COV362(Luc) cells after pretreatment with cytostatic agents (flow cytometry); assay type: cell-based, human; settings: 4 days drug (5 ng/ml paclitaxel, 20 μg/ml carboplatin, 25 ng/ml gemcitabine, 20 ng/ml doxorubicin, 7.5 ng/ml topotecan), then 3 or 10 days without drug
Method: ADCC activity of IMAB027 in combination with chemotherapy was analyzed using COV362(Luc) target cells. Therefore, cells were treated for 4 days with carboplatin, gemcitabine, paclitaxel, doxorubicin or topotecan at indicated concentrations. After treatment, cells were grown for 3 (A-D) and 10 days (E-J) in the absence of cytostatic drugs, respectively. Control cells were cultured without cytostatics. (A, C, E, G, I) ADCC experiments were performed with IMAB027 (black lines) or an isotype control antibody (grey lines) using PBMC from healthy donors at an effector (PBMC) to target cell ratio of ˜40:1. Data points (n=4 replicates) are depicted as mean±SD. (B, D, F, H, J) Expression of CLDN6 was analyzed by flow cytometry using IMAB027.
The cells were washed twice and resuspended in FACS buffer. The binding was analysed by flow cytometry using a BD FACSArray (BD Biosciences) and FlowJo software (Tree Star Inc.). The live/dead dye propidium iodide (Sigma, P4864) was used to exclude dead cells from the analysis.
The human ovarian carcinoma cell line COV362 stably transfected with luciferase as a reporter was used to determine the influence of carboplatin and paclitaxel on IMAB027-mediated ADCC. COV362(Luc) cells (3×10^6 cells per 150 mm cell culture dish) were grown under standard conditions. After 24 h, cells were treated with 5 ng/ml paclitaxel, 20 μg/ml carboplatin, 25 ng/ml gemcitabine, 20 ng/ml doxorubicin or 7.5 ng/ml topotecan and incubated for 4 days. The medium was changed and the treated cells were grown under standard growth conditions for further 3 days for carboplatin and gemcitabine or 10 days for paclitaxel, doxorubicin or topotecan.

[3] = test system: human ES-2(CLDN6) xenograft tumors; assay: Early ES-2(CLDN6) subcutaneous xenograft tumor model, IMAB027 with paclitaxel; assay type: in vivo, mice; settings: s.c. ES-2(CLDN6) xenograft; paclitaxel 15 mg/kg i.p. day 3, 10, 17; IMAB027 35 mg/kg three times a week from day 4; vs control group
Method: Subcutaneous human ES-2 xenograft tumors ectopically expressing human CLDN6 were treated with 15 mg/kg paclitaxel on day 3, 10 and 17 post graft by i.p. injections. Antibody maintenance therapy started on day 4 with three 35 mg/kg IMAB027 injections per week (alternating i.v./i.p./i.p.).
Hsd:Athymic Nude-Foxn1^nu mice were engrafted with human cancer cell lines. […] The control group received antibody buffer (vehicle control).
Specifically, for treatment of human ES-2(CLDN6) xenograft tumors, the human ovarian carcinoma cell line ES-2 stably transfected with human CLDN6 was cultivated in Minimum Essential Media (Life Technologies) containing 1 x non-essential amino acids solution (Life Technologies), 700 μg/ml G418 (Life Technologies) and 10% FCS (Life Technologies) at 3TC in a humidified incubator with 5% CO2. For engraftment, 6 week-old female Hsd:Athymic Nude-Foxn1^nu mice were subcutaneously inoculated with 5×10^6 ES-2(CLDN6) cells in 200 μl PBS into the flank. On day 3 post subcutaneous tumor inoculation, mice were treated with either saline control, antibody or chemotherapeutic drug monotherapy and antibody/cytostatic drug combination therapy groups (n=12 per group). […] Tumor burden and animal health were monitored twice a week. […] Inhibition of tumor growth was analyzed using the Kruskal-Wallis test and the post-hoc Dunn's multiple comparison test.

## N.N.[Cl][Pt][Cl] [cisplatin, cis-diamminedichloroplatinum(II)]
[1]
  tumor growth / anti-tumoral efficacy: highly significantly reduce tumor growth

## COc1cccc2c1C(=O)c1c(O)c3c(c(O)c1C2=O)C[C@@](O)(C(=O)CO)C[C@@H]3O[C@H]1C[C@H](N)[C@H](O)[C@H](C)O1 [doxorubicin]
[2]
  protein levels of CLDN6 on the cell surface after pretreatment: increased protein levels of CLDN6 on the cell surface

## Nc1ccn([C@@H]2O[C@H](CO)[C@@H](O)C2(F)F)c(=O)n1 [gemcitabine, 4-amino-1-(2-deoxy-2,2-difluoro-β-D-erythro-pentofuranosyl)pyrimidin-2 (1H)-one]
[2]
  protein levels of CLDN6 on the cell surface after pretreatment: increased protein levels of CLDN6 on the cell surface

## CC(=O)O[C@H]1C(=O)[C@@]2(C)[C@H]([C@H](OC(=O)c3ccccc3)[C@]3(O)C[C@H](OC(=O)[C@H](O)[C@@H](NC(=O)c4ccccc4)c4ccccc4)C(C)=C1C3(C)C)[C@]1(OC(C)=O)CO[C@@H]1C[C@@H]2O [paclitaxel, (2α,4α,5β,7β,10β,13α)-4,10-bis-(acetyloxy)-13-{[(2R,3S)-3-(benzoylamino)-2-hydroxy-3-phenylpropanoyl]oxy}-1,7-dihydroxy-9-oxo-5,20-epoxytax-11-en-2-yl benzoate]
[3]
  tumor growth / anti-tumoral activity: does not show anti-tumoral activity
[2]
  protein levels of CLDN6 on the cell surface after pretreatment: increased protein levels of CLDN6 on the cell surface

## CC[C@@]1(O)C(=O)OCc2c1cc1n(c2=O)Cc2cc3c(CN(C)C)c(O)ccc3nc2-1 [topotecan, (S)-10-[(dimethylamino)methyl]-4-ethyl-4,9-dihydroxy-1H-pyrano[3′,4′:6,7]indolizino[1,2-b]quinoline-3,14(4H,12H)-dione monohydrochloride]
[2]
  protein levels of CLDN6 on the cell surface after pretreatment: increased protein levels of CLDN6 on the cell surface
